According to patent publication US20200045983A1, “PROMOTER FOR LEGUMINOUS PLANT GROWTH” (KAO CORPORATION, priority 2017, published 2020):

How the values were obtained:
soybean (Glycine max) [1] = experiment: Effect of soyasaponin Bb on soybean growth, in combination with root nodule bacterium material (Example 2); type: in vivo; settings: for foliar age among the three plots / plant height among the three plots / above-ground part fresh weight vs only the root nodule bacterium material / root nodule weight vs only the root nodule bacterium material / number of lateral buds / increase in the number of root nodules vs only the root nodule bacterium material: 1 mL of 20 μM solution, 24 days; for above-ground part fresh weight vs only the root nodule bacterium material: no significant change; for root nodule weight vs only the root nodule bacterium material: no significant difference; for number of lateral buds: rarely seen in non-application plot; for increase in the number of root nodules vs only the root nodule bacterium material: significant only for genistein
Method: Each Leonard jar filled with culture soil (Takii water-containing cell culture soil TM-1, Takii & Co., Ltd.) was irrigated with 100 mL of tap water. Then, a root nodule bacterium material (“Dr Mametaro®” (Idemitsu Kosan Co., Ltd.) was distributed at a thickness on the order of 5 mm onto the culture soil in the jar using a spatula. Two seeds of soybean (cultivar “Ryokuheki”, Kaneko Seeds Co., Ltd.) were sown by burying at a depth of approximately 1 cm from the culture soil surface. 1 mL of a solution of 20 μM soyasaponin Bb (soyasaponin I, ChromaDex, Inc.) dissolved in 50 mM TAPS buffer (pH 7.7) was added dropwise onto the culture soil covering the seeds using a micropipette. The soyasaponin Bb concentration in the culture soil was approximately 0.3 ppm. Only 1 mL of 50 mM TAPS buffer as a negative control and 1 mL of 20 μM genistein (Gen) solution as a positive control of root nodule formation promotion were applied in the same way as above (for the root nodule formation-promoting effect of genistein, see: Plant and Soil, 1997, 192: 141-151; and Secretions and Exudates in Biological Systems 27-48, Signaling and Communication in Plants 12, Springer-Verlag Berlin Heidelberg, 2012).
Plant cultivation was performed under the same conditions as in Example 1. 24 days after the sowing, growth indexes (foliar age, plant height, the number of lateral buds, above-ground part fresh weight, underground part fresh weight, the number of root nodules, and root nodule fresh weight) were measured. Each growth index was obtained as to each test plot by determining a mean of two plant individuals in each jar, and subsequently calculating a mean of four jars (n=4). The Tukey-Kramer method was used to test the significant difference among the plots.

soybean (Glycine max) [2] = experiment: Effect of saponin formulation and iron phosphate in combination on soybean yield (Example 10); type: in vivo; settings: 50 mg saponin formulation and/or 0.75 mg iron(III) phosphate tetrahydrate per pot, irrigation, 86 days
Method: “Ryokuheki” (Kaneko Seeds Co., Ltd.) was used as soybean seeds. Each Wagner pot of 1/5,000 a was filled with approximately 4 L of culture soil (Takii water-containing cell culture soil, intermedium-acting fertilizer effect type:expanded vermiculite=1:1 (volume ratio)), and three seeds were sown at a depth of approximately 1 cm from the culture soil surface. 50 mg of a saponin formulation (“soybean saponin 80”; AccessOne Co., Ltd.), 0.75 mg of iron(III) phosphate tetrahydrate (Junsei Chemical Co., Ltd.), and a mixture thereof were each suspended in 100 mL of tap water, and the culture soil surface was irrigated with each suspension (“saponin plot”, “iron phosphate plot” and “combination plot”, respectively; both the concentrations of the saponin formulation of the combination plot and the saponin plot in the culture soil were approximately 12.5 ppm and corresponded to approximately 6.1 ppm in terms of the concentration of group B soyasaponin calculated from quantification results (Table 7) in Production Example 1). […] 86 days after the sowing, pods (the pods include grains; the same holds true for the description below) were harvested, and a pod fresh weight per plant (pot) and a pod fresh weight per pod (average weight per pod) were measured (n=7 only for the combination plot, and n=8 for the other plots). […]

lettuce (Lactuca sativa) = settings: Non Patent Literatures 7 to 10; cited from earlier work
soybean (Glycine max) [3] = experiment: Effect of soyasaponin Bb on soybean growth in culture soil (Example 1); type: in vivo; settings: approx. 0.3 ppm in culture soil, 24 days after sowing
Method: Each Leonard jar (Soil Science and Plant Nutrition, 1983, 29: 97-100) filled with approximately 65 g of culture soil (Takii water-containing cell culture soil TM-1, Takii & Co., Ltd.) was irrigated with 100 mL of tap water. Then, two seeds of soybean (cultivar “Ryokuheki”, Kaneko Seeds Co., Ltd.) were sown by burying at a depth of approximately 1 cm from the culture soil surface. 1 mL of a solution of 20 μM soyasaponin Bb (soyasaponin I, ChromaDex, Inc.) dissolved in 50 mM TAPS buffer (pH 7.7) was added dropwise onto the culture soil covering the seeds using a micropipette. The soyasaponin Bb concentration in the culture soil was approximately 0.3 ppm (ppm by mass; the same holds true for the description below). 50 mM TAPS buffer (pH 7.7) was applied as a control (soyasaponin Bb non-application plot) in the same way as above.
Plant cultivation was performed in a plant growth chamber (LPH-350SP, Nippon Medical & Chemical Instruments Co., Ltd.). The light conditions were set to 16-hour light (light intensity: 130 μmol/m^2/s)/8-hour dark. The temperature was set to 26° C. for light and 20° C. for dark, and the humidity was set to 50%. Water supply was performed appropriately (approximately once per 7 to 10 days) by the addition of tap water in an appropriate amount to the lower part of the jar. 24 days after the sowing, growth indexes (foliar age, plant height, the number of lateral buds, above-ground part fresh weight, and underground part fresh weight) were measured. Each growth index was obtained as to each of the soyasaponin Bb non-application plot (control) and the soyasaponin Bb application plot by determining a mean of two plant individuals in each jar, and subsequently calculating a mean of four jars (n=4). The Student's t test was used to test the significant difference between the soyasaponin Bb application plot and the non-application plot.

Row | SMILES | foliar age among the three plots (soybean (Glycine max) [1]) | plant height among the three plots (soybean (Glycine max) [1]) | above-ground part fresh weight vs only the root nodule bacterium material (soybean (Glycine max) [1]) | root nodule weight vs only the root nodule bacterium material (soybean (Glycine max) [1]) | number of lateral buds (soybean (Glycine max) [1]) | increase in the number of root nodules vs only the root nodule bacterium material (soybean (Glycine max) [1]) | increase in pod fresh weight per pod with respect to the non-application plot (soybean (Glycine max) [2]; significant (5% or less)) | increase in pod fresh weight per plant with respect to the non-application plot (soybean (Glycine max) [2]; significant only for combination) | lettuce radicle elongation (lettuce (Lactuca sativa)) | foliar age vs non-application plot (soybean (Glycine max) [3]) | plant height vs non-application plot (soybean (Glycine max) [3]) | increase in the number of lateral buds with respect to the non-application plot (soybean (Glycine max) [3]; statistically significant) | increase in underground part fresh weight with respect to the non-application plot (soybean (Glycine max) [3]; statistically significant) | increase in above-ground part fresh weight with respect to the non-application plot (soybean (Glycine max) [3]; tendency, no significant difference) | increase in underground part fresh weight with respect to only the root nodule bacterium material (soybean (Glycine max) [1]; 1 mL of 20 μM solution (approx. 0.3 ppm in culture soil), 24 days after sowing, statistically significant)
1 | O=c1c(-c2ccc(O)cc2)coc2cc(O)cc(O)c12 [genistein, reference compound] | did not differ significantly | did not differ significantly | tendency toward increase | tendency toward increase | on average one per individual | approximately 1.7 times |  |  |  |  |  |  |  |  | 
2 | O.O.O.O.O=P([O-])([O-])[O-].[Fe+3] [iron phosphate, iron(III) phosphate tetrahydrate] |  |  |  |  |  |  | approximately 10% | approximately 10% |  |  |  |  |  |  | 
3 | C[C@@H]1O[C@@H](O[C@H]2[C@H](O[C@H]3[C@H](O[C@H]4CC[C@@]5(C)[C@@H](CC[C@]6(C)[C@@H]5CC=C5[C@@H]7CC(C)(C)C[C@@H](O)[C@]7(C)CC[C@]56C)[C@@]4(C)CO)O[C@H](C(=O)O)[C@@H](O)[C@@H]3O)O[C@H](CO)[C@H](O)[C@@H]2O)[C@H](O)[C@H](O)[C@H]1O [soyasaponin Bb] | did not differ significantly | did not differ significantly | tendency toward increase | tendency toward increase | on average one per individual | approximately 1.3 times |  |  | relatively weak or was not seen | did not differ significantly | did not differ significantly | approximately 2.7 times | approximately 2.2 times | approximately 1.1 times | approximately 1.5 times
4 | CC1=C(O)C(=O)C[C@H](O[C@@H]2CC(C)(C)C[C@H]3C4=CC[C@@H]5[C@@]6(C)CC[C@H](O[C@@H]7O[C@H](C(=O)O)[C@@H](O)[C@H](O)[C@H]7O[C@@H]7O[C@H](CO)[C@H](O)[C@H](O)[C@H]7O[C@@H]7O[C@@H](C)[C@H](O)[C@@H](O)[C@H]7O)[C@](C)(CO)[C@@H]6CC[C@@]5(C)[C@]4(C)CC[C@@]23C)O1 [soyasaponin βg, reference compound] |  |  |  |  |  |  |  |  | promoted |  |  |  |  |  | 
